Data taken from patent US20120010173A1 (SEPS PHARMA N.V., priority 2009, published 2012).

Experiments:
[1] = Chemical stability in pharmaceutical solvents (weight % remaining in solution, LCMS); assay type: physicochemical
Procedure: (§1) Table 4 provides the chemical stability data in some pharmaceutical solvents, expressed as the weight percentage (% w/w) of the final fosfluconazole derivative produced and characterized in example 1 that remained in solution after a certain period of time. The test was carried out twice, and the remaining weight % was determined by Liquid Chromatography-Mass Spectrometry (LCMS).
as §1, with “5” for “4”, “solvents at 25° C.,” for “solvents,”, “2” for “1”
as §1, with “6” for “4”, “solvents at 25° C.,” for “solvents,”, “3” for “1”
as §1, with “7” for “4”, “4” for “1”
as §1, with “8” for “4”, “5” for “1”
as §1, with “9” for “4”, “6” for “1”
as §1, with “10” for “4”, “14” for “1”

[2] = Solubility of fosfluconazole derivatives in pharmaceutical solvents (Table 2); assay type: physicochemical; conditions: thermodynamic from solid
Procedure: The solubility determination method used was as follows: a suspension of 6 mg of the tested fosfluconazole derivative in 500 μl of the applicable pharmaceutical solvent was rotatively shaken for 24 hours at 800 rpm at 25° C. The saturated fosfluconazole derivative solution was filtered (0.45 μm) and 150 μl of the filtrate was diluted in dimethylsulfoxide (50 μl DMSO). This solution was assayed, each assay being carried out in three-fold, by measurement with Liquid Chromatography-Mass Spectrometry (LCMS, 1 μl and 10 μl injection). Standards were prepared by dissolving the corresponding fosfluconazole derivative in DMSO (1 mg/ml). To determine the solubility, four aliquots (0.5, 1, 2, 4 μl) of the standard solution were injected using the same LCMS conditions as for the above exemplary samples.

[3] = H2O/Kleptose HPB (60/40), 4 hours
[4] = H2O/Kleptose HPB (60/40), 1 day
[5] = H2O/Kleptose HPB (60/40), 2 days
[6] = H2O/Kleptose HPB (60/40), 7 days
[7] = H2O/Kleptose HPB (60/40), 14 days
[8] = aqueous with cosolvent or surfactant or cyclodextrin, H2O/Cremophor RH 40 (80/20), 25° C.
[9] = aqueous with cosolvent or surfactant or cyclodextrin, H2O/Kleptose HPB (60/40), 25° C.
[10] = aqueous with cosolvent or surfactant or cyclodextrin, H2O/Vitamin E TPGS (90/10), 25° C.
[11] = aqueous with cosolvent or surfactant or cyclodextrin, H2O/polysorbate 80 (80/20), 25° C.
[12] = oil or lipid, Miglyol 812, 25° C.
[13] = organic solvent or mixture, PEG 400, 25° C.
[14] = water (pH 2), aqueous buffer, H2O (pH = 2), 25° C.
[15] = water (pH 7), aqueous buffer, H2O (pH = 7), 25° C.
[16] = water (pH 10), aqueous buffer, H2O (pH = 10), 25° C.

SMILES	weight percentage that remained in solution ([1]; H2O (pH = 7), 4 hours)	weight percentage that remained in solution ([1]; H2O (pH = 7), 1 day)	weight percentage that remained in solution ([1]; H2O (pH = 7), 2 days)	weight percentage that remained in solution ([1]; H2O (pH = 7), 7 days)	weight percentage that remained in solution ([1]; H2O (pH = 7), 14 days)	weight percentage that remained in solution ([1]; H2O (pH = 10), 4 hours)	weight percentage that remained in solution ([1]; H2O (pH = 10), 1 day)	weight percentage that remained in solution ([1]; H2O (pH = 10), 2 days)	weight percentage that remained in solution ([1]; H2O (pH = 10), 7 days)	weight percentage that remained in solution ([1]; H2O (pH = 10), 14 days)	weight percentage that remained in solution [1, 3]	weight percentage that remained in solution [1, 4]	weight percentage that remained in solution [1, 5]	weight percentage that remained in solution [1, 6]	weight percentage that remained in solution [1, 7]	weight percentage that remained in solution ([1]; PEG 400, 4 hours)	weight percentage that remained in solution ([1]; PEG 400, 1 day)	weight percentage that remained in solution ([1]; PEG 400, 2 days)	weight percentage that remained in solution ([1]; PEG 400, 7 days)	weight percentage that remained in solution ([1]; PEG 400, 14 days)	also measured
C[N+](C)(C)CCOP(=O)([O-])OC(Cn1cncn1)(Cn1cncn1)c1ccc(F)cc1F [Example 1, 2-(2,4-difluorophenyl)-1,3-di(1H-1,2,4-triazol-1-yl)propan-2-yl 2-(trimethylammonio)-ethyl phosphate]	99.6 % w/w	99.6 % w/w	54.7 % w/w	99.6 % w/w	99.6 % w/w	99.8 % w/w	100.0 % w/w	99.7 % w/w	100.0 % w/w	100.0 % w/w	99.3 % w/w	98.8 % w/w	98.8 % w/w	98.6 % w/w	99.1 % w/w	99.8 % w/w	100.0 % w/w	99.8 % w/w	99.9 % w/w	100.0 % w/w	weight percentage that remained in solution ([1]; H2O (pH = 2), 4 hours): 99.9 % w/w; weight percentage that remained in solution ([1]; H2O (pH = 2), 1 day): 100.0 % w/w; weight percentage that remained in solution ([1]; H2O (pH = 2), 2 days): 99.4 % w/w; weight percentage that remained in solution ([1]; H2O (pH = 2), 7 days): 99.4 % w/w; weight percentage that remained in solution ([1]; H2O (pH = 2), 14 days): 99.2 % w/w; solubility at 24 h [2, 8]: > 10000 µg/mL; solubility at 24 h [2, 9]: 4200 µg/mL; solubility at 24 h [2, 10]: 7400 µg/mL; solubility at 24 h [2, 11]: 8300 µg/mL; solubility at 24 h [2, 12]: 400 µg/mL; solubility at 24 h [2, 13]: > 10000 µg/mL; solubility at 24 h [2, 14]: > 10000 µg/mL; solubility at 24 h [2, 15]: 6800 µg/mL; solubility at 24 h [2, 16]: 7500 µg/mL
CCCCCCCCCC(=O)OCCOP(=O)([O-])OC(Cn1cncn1)(Cn1cncn1)c1ccc(F)cc1F.[Na+] [Example 2, sodium 2-(decanoyloxy)ethyl 2-(2,4-difluorophenyl)-1,3-di(1H-1,2,4-triazol-1-yl)propan-2-yl phosphate]	97.8 % w/w	97.7 % w/w	98.0 % w/w	97.8 % w/w	97.9 % w/w	94.6 % w/w	98.0 % w/w	96.8 % w/w	96.8 % w/w	99.2 % w/w	98.0 % w/w	98.0 % w/w	98.2 % w/w	97.7 % w/w	98.0 % w/w	97.7 % w/w	97.9 % w/w	98.1 % w/w	98.0 % w/w	98.7 % w/w	weight percentage that remained in solution ([1]; H2O (pH = 2), 4 hours): 97.8 % w/w; weight percentage that remained in solution ([1]; H2O (pH = 2), 1 day): 97.7 % w/w; weight percentage that remained in solution ([1]; H2O (pH = 2), 2 days): 96.8 % w/w; weight percentage that remained in solution ([1]; H2O (pH = 2), 7 days): 96.7 % w/w; weight percentage that remained in solution ([1]; H2O (pH = 2), 14 days): 100.0 % w/w; solubility at 24 h [2, 8]: > 10000 µg/mL; solubility at 24 h [2, 9]: > 10000 µg/mL; solubility at 24 h [2, 10]: > 10000 µg/mL; solubility at 24 h [2, 11]: > 10000 µg/mL; solubility at 24 h [2, 12]: 5000 µg/mL; solubility at 24 h [2, 13]: > 10000 µg/mL; solubility at 24 h [2, 14]: 6900 µg/mL; solubility at 24 h [2, 15]: > 10000 µg/mL; solubility at 24 h [2, 16]: > 10000 µg/mL
CCCCCCCCCOCCOP(=O)([O-])OC(Cn1cncn1)(Cn1cncn1)c1ccc(F)cc1F.[Na+] [Example 3, sodium 2-(2,4-difluorophenyl)-1,3-di(1H-1,2,4-triazol-1-yl)propan-2-yl 2-(nonyloxy)ethyl phosphate]	94.8 % w/w	94.7 % w/w	95.0 % w/w	94.8 % w/w	95.1 % w/w	94.8 % w/w	94.8 % w/w	95.0 % w/w	95.0 % w/w	95.2 % w/w	95.0 % w/w	94.9 % w/w	94.7 % w/w	95.0 % w/w	95.2 % w/w	95.0 % w/w	94.9 % w/w	95.0 % w/w	95.0 % w/w	95.1 % w/w	weight percentage that remained in solution ([1]; H2O (pH = 2), 4 hours): 94.8 % w/w; weight percentage that remained in solution ([1]; H2O (pH = 2), 1 day): 94.6 % w/w; weight percentage that remained in solution ([1]; H2O (pH = 2), 2 days): 95.0 % w/w; weight percentage that remained in solution ([1]; H2O (pH = 2), 7 days): 95.0 % w/w; weight percentage that remained in solution ([1]; H2O (pH = 2), 14 days): 95.0 % w/w; solubility at 24 h [2, 8]: > 10000 µg/mL; solubility at 24 h [2, 9]: > 10000 µg/mL; solubility at 24 h [2, 10]: > 10000 µg/mL; solubility at 24 h [2, 11]: > 10000 µg/mL; solubility at 24 h [2, 12]: 2600 µg/mL; solubility at 24 h [2, 13]: > 10000 µg/mL; solubility at 24 h [2, 14]: > 10000 µg/mL; solubility at 24 h [2, 15]: > 10000 µg/mL; solubility at 24 h [2, 16]: > 10000 µg/mL
CCCCCCCCCC(=O)OCC(COP(=O)([O-])OC(Cn1cncn1)(Cn1cncn1)c1ccc(F)cc1F)OC(=O)CCCCCCCCC.[Na+] (centres unmarked) [Example 4, sodium 2,3-bis(decanoyloxy)propyl 2-(2,4-difluorophenyl)-1,3-di(1H-1,2,4-triazol-1-yl)propan-2-yl phosphate]	95.2 % w/w	95.3 % w/w	95.5 % w/w	95.6 % w/w	95.4 % w/w	45.5 % w/w	44.8 % w/w	41.3 % w/w	39.4 % w/w	37.1 % w/w	95.1 % w/w	95.3 % w/w	95.3 % w/w	94.2 % w/w	87.7 % w/w	96.8 % w/w	95.9 % w/w	96.7 % w/w	96.6 % w/w	97.3 % w/w	solubility at 24 h [2, 8]: > 10000 µg/mL; solubility at 24 h [2, 9]: > 10000 µg/mL; solubility at 24 h [2, 10]: > 10000 µg/mL; solubility at 24 h [2, 11]: > 10000 µg/mL; solubility at 24 h [2, 12]: > 10000 µg/mL; solubility at 24 h [2, 13]: 9000 µg/mL; solubility at 24 h [2, 14]: < 1000 µg/mL; solubility at 24 h [2, 15]: 9900 µg/mL; solubility at 24 h [2, 16]: > 10000 µg/mL
